Experimental data taken from patent US5439888A, “Antithrombotic agents” (Eli Lilly and Company, priority 1994, dated 1995).

Assays:
Trypsin = assay: Serine protease selectivity assay (chromogenic substrate), Kass, trypsin; type: biochemical, bovine; details: equilibrium association constant; substrate N-Benzoyl-Phe-Val-Arg-p-nitroanilide
Experimental: [The procedure below names another target; the source says it served here with some conditions changed.] (§1) The assay is carried out by mixing 50 μL buffer (0.03M Tris, 0.15M NaCl ,pH 7.4) with 25 μL of bovine thrombin or human thrombin solution (0.21 mg/mL of thrombostat bovine thrombin, Parke-Davis, or purified human thrombin, Enzyme Research Laboratories, South Bend, Ind., at about 8 NIH units/mL, in the same buffer) and 25 μL of test compound in a solvent (in 50% aqueous methanol, v:v). The 150 μL of an aqueous solution of the chromogenic substrate (at 0.25 mg/mL) are added and the rates of hydrolysis of the substrate are measured by monitoring the reactions at 405 nm for the release of p-nitroaniline. Standard curves are constructed by plotting free thrombin concentration against hydrolysis rate. The hydrolysis rates observed with test compounds are then converted to "free thrombin" values in the respective assays by use of the standard curves. The bound thrombin (bound to test compound) is calculated by subtracting the amount of free thrombin observed in each assay from the known initial amount of thrombin used in the assay. The amount of free inhibitor in each assay is calculated by subtracting the number of moles of bound thrombin from the number of moles of added inhibitor (test compound). […]
(§2) Kass is calculated for a range of concentrations of test compounds and the mean value is reported in units of liter per mole. […]

Bovine Thrombin = assay: Inhibition of thrombin amidase activity (chromogenic substrate), Kass; type: biochemical; details: equilibrium association constant, mean over a range of concentrations; substrate N-benzoyl-Phe-Val-Arg-p-nitroanilide
Experimental: as §1
Kass is calculated for a range of concentrations of test compounds and the mean value is reported in units of liter per mole.

factor Xa = assay: Serine protease selectivity assay (chromogenic substrate), Kass, factor Xa; type: biochemical, human; details: equilibrium association constant; substrate N-Benzoyl-Ile-Glu-Gly-Arg-p-nitroanilide
Experimental: [The procedure below names another target; the source says it served here with some conditions changed.] as §1, §2

Plasmin = assay: Serine protease selectivity assay (chromogenic substrate), Kass, plasmin; type: biochemical, human; details: equilibrium association constant; substrate H-D-Val-Leu-Lys-p-nitroanilide
Experimental: [The procedure below names another target; the source says it served here with some conditions changed.] as §1, §2

t-PA = assay: Serine protease selectivity assay (chromogenic substrate), Kass, t-PA; type: biochemical; details: equilibrium association constant; substrate H-D-Ile-Pro-Arg-p-nitroanilide
Experimental: [The procedure below names another target; the source says it served here with some conditions changed.] as §1, §2

Kd (Trypsin) [µM] | Kd (Bovine Thrombin) [µM] | Kd (factor Xa) [µM] | Kd (Plasmin) [µM] | Compound | Kass t-PA (t-PA)
250 | 0.909 | 3330 | 2000 | CN[C@H](Cc1ccccc1)C(=O)N1CCC[C@H]1C(=O)N[C@](C)(C=O)CCCNC(=N)N [Example 1, D-N-methylphenylalanyl-L-prolinyl-L-α-methylarginine aldehyde] | 0 × 10^6 (L/mole)
71.4 | 4.55 | 1000 | 1250 | C[C@@](C=O)(CCCNC(=N)N)NC(=O)[C@@H]1CCCN1C(=O)[C@@H]1NCCc2ccccc21 [Example 2, D-1-(1,2,3,4-tetrahydroisoquinolinylcarboxyl)-L-prolinyl-L -α-methylarginine aldehyde] | 0 × 10^6 (L/mole)
